Data set [1] has as its target T1, Replication protein A 70 kDa DNA-binding subunit (Homo sapiens, UniProt P27694).
Description: Binding affinity to RPA70N protein (unknown origin) incubated for 1 hr using FITC-ATRIP/FITC-ATRIP2 peptide probe by fluorescence polarization anisotropy assay
For data set [2], the target named is T1, Replication protein A 70 kDa DNA-binding subunit. Description: Binding affinity to RPA70N protein (unknown origin) by HSQC NMR-based titration method.
Data set [3] shares this target. The following applies: at 500 µM.
Description: Displacement of FITC-ATRIP/FITC-ATRIP2 peptide probe from RPA70N protein (unknown origin) at 500 uM incubated for 1 hr by fluorescence polarization anisotropy assay
Data set [4] is described as follows: Intrinsic permeability in human Caco2 cells. The note with it: Caco-2, read-out: permeability. The class given is ADME, cell-based.

The structures appear in SMILES notation. Some results are limits rather than exact numbers.

By Kd is commonly meant the constant that tells how readily two partners part at equilibrium. Lower therefore signals higher affinity. For orientation: inhibition means how much of the control response was suppressed.

T1 sequence (P27694 whole entry): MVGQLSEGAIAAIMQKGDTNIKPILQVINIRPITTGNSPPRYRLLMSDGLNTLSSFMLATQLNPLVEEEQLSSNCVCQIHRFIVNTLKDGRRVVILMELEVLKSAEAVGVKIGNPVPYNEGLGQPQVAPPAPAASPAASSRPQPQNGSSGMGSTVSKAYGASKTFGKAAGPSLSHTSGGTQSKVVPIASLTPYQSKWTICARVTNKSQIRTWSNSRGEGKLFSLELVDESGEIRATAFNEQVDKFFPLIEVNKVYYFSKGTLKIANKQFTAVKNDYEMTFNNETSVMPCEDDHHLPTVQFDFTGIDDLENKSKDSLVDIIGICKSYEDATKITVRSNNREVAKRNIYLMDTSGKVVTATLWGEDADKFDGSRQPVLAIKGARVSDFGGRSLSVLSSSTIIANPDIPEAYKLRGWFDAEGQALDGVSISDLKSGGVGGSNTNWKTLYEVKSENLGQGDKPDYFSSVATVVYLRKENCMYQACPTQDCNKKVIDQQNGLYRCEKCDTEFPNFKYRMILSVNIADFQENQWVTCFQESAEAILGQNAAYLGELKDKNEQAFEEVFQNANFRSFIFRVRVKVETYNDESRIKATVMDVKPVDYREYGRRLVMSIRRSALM

With `O=C(O)c1cc(Cc2ccc(O)cc2)n(-c2ccc(Cl)c(Cl)c2)n1`, in data set [1], the Kd is > 500 µM.
On to `O=C(O)c1cc(-c2ccco2)n(-c2ccc(Cl)c(Cl)c2)n1`, for which, in data set [1], the Kd was > 500 µM.
The same measure, in the same setting: in the case of `O=C(O)c1cc(-c2cccc(CNCc3ccc(-c4ccc(C(=O)O)o4)cc3)c2)n(-c2ccc(Cl)c(Cl)c2)n1` it was 57 µM.
As to `Cc1cccc(-n2nc(C(=O)O)cc2-c2ccccc2)c1`, the Kd was 580 µM in data set [2] and > 500 µM in data set [1].
In the case of `O=C(NCc1ccc(-c2cc(C(=O)O)nn2-c2ccc(Cl)c(Cl)c2)cc1)c1ccc(Br)cc1`, binding in data set [1] was characterised by a dissociation constant (Kd) of 35 µM.
Same read-out and setting: in the case of `O=C(O)c1cc(-c2ccc(CNS(=O)(=O)c3ccc(OC(F)(F)F)cc3)cc2)n(-c2ccc(Cl)c(Cl)c2)n1` it was 56 µM; in that of `O=C(O)c1cc(-c2ccc(C(=S)NCc3ccc(-c4ccc(C(=O)O)o4)cc3)cc2)n(-c2ccc(Cl)c(Cl)c2)n1`, 1.5 µM.
Same read-out and setting: in the case of `COc1ccc(CNC(=O)c2ccc(-c3cc(C(=O)O)nn3-c3ccc(Cl)c(Cl)c3)cc2)cc1` it was 45 µM; in that of `O=C(NCc1ccc(-c2ccc(C(=O)O)o2)cc1)c1cccc(-c2cc(C(=O)O)nn2-c2ccc(Cl)c(Cl)c2)c1`, 22 µM.
On the same count and under the same terms, in the case of `O=C(O)c1cc(-c2ccc(C(=S)NCc3ccc(-c4ccc(C(=O)O)o4)cc3Cl)cc2)n(-c2ccc(Cl)c(Cl)c2)n1` it was 0.48 µM.
As for `COc1ccc(-c2cc(C(=O)O)nn2-c2ccc(Cl)c(Cl)c2)cc1`, in data set [1], the Kd came out at 79 µM.
The same measure, in the same setting: in the case of `O=C(O)c1cc(-c2ccc(CNC(=S)c3ccc(-c4nnn[nH]4)cc3)cc2)n(-c2ccc(Cl)c(Cl)c2)n1` it was 2.2 µM; in that of `O=C(O)c1cccc(-c2cc(C(=O)O)nn2-c2ccc(Cl)c(Cl)c2)c1`, 129 µM; in that of `O=C(NCc1ccc(-c2ccc(C(=O)O)o2)cc1Cl)c1ccc(-c2cc(C(=O)O)nn2-c2ccc(Cl)c(Cl)c2)cc1`, 9.4 µM.
Regarding `N#Cc1ccc(-c2cc(C(=O)O)nn2-c2ccc(Cl)c(Cl)c2)cc1`, in data set [1], the Kd was 310 µM.
Still for that read-out and setting: in the case of `O=C(O)c1cc(-c2ccc(CNC(=S)c3ccc(Br)cc3)cc2)n(-c2ccc(Cl)c(Cl)c2)n1` it was 15 µM; in that of `NCc1ccc(-c2cc(C(=O)O)nn2-c2ccc(Cl)c(Cl)c2)cc1`, > 500 µM; in that of `O=C(NCc1ccccc1)c1ccc(-c2cc(C(=O)O)nn2-c2ccc(Cl)c(Cl)c2)cc1`, 83 µM.
In data set [1], `O=C(O)c1cc(-c2ccc(CN3CCc4cc(-c5ccc(C(=O)O)o5)ccc4C3=S)cc2)n(-c2ccc(Cl)c(Cl)c2)n1` yielded a Kd of 0.54 µM.
Still for that read-out and setting: then `COc1ccc(CNC(=S)c2ccc(-c3cc(C(=O)O)nn3-c3ccc(Cl)c(Cl)c3)cc2)cc1`, with 23 µM; and `O=C(O)c1cc(-c2ccc(CNC(=S)c3ccc(-c4nc(=O)o[nH]4)cc3)cc2)n(-c2ccc(Cl)c(Cl)c2)n1`, with 9.3 µM.
As for `COc1ccc(-n2nc(C(=O)O)cc2-c2ccccc2)cc1`, the inhibition in data set [3] is 18%. Further, the Kd was 895 µM in data set [2] and > 500 µM in data set [1].
In data set [1], `CC(=O)N(Cc1ccc(-c2ccc(C(=O)O)o2)cc1)Cc1cccc(-c2cc(C(=O)O)nn2-c2ccc(Cl)c(Cl)c2)c1` gave a Kd of 8.2 µM.
Still for that read-out and setting: in the case of `COc1ccc(C(=O)NCc2ccc(-c3cc(C(=O)O)nn3-c3ccc(Cl)c(Cl)c3)cc2)cc1` it was 72 µM.
For `COc1ccc(-c2cc(C(=O)O)nn2-c2cccc(C)c2)cc1`, in data set [3], the inhibition turned out to be 20%. Also, in data set [1], the Kd was > 500 µM.
`O=C(O)c1cc(-c2ccc(C(=S)NCc3ccccc3)cc2)n(-c2ccc(Cl)c(Cl)c2)n1` registered a Kd in data set [1] of 18 µM.
The same measure, in the same setting: then `O=C(O)c1cc(-c2ccc(O)cc2)n(-c2ccc(Cl)c(Cl)c2)n1`, with 104 µM.
On to `O=C(O)c1cc(-c2ccc(Cl)cc2)n(-c2ccc(Cl)c(Cl)c2)n1`, for which the Kd in data set [2] was found to be 54 µM; in data set [1], 67 µM.
As to `O=C(O)c1cc(-c2ccc(CNC(=S)c3ccc(-c4ccc(C(=O)O)o4)cc3)cc2)n(-c2ccc(Cl)c(Cl)c2)n1`, the affinity in data set [1], expressed as Kd, was 0.55 µM.
In the case of `COc1ccc(-c2cc(C(=O)O)nn2C2CCCCC2)cc1`, the inhibition in data set [3] amounted to 9%. Besides, in data set [1], the Kd is > 500 µM.
Regarding `NS(=O)(=O)c1ccc(C(=S)NCc2ccc(-c3cc(C(=O)O)nn3-c3ccc(Cl)c(Cl)c3)cc2)cc1`, in data set [1], the Kd was 34 µM.
Regarding `O=C(O)c1ccc(-c2cc(C(=O)O)nn2-c2ccc(Cl)c(Cl)c2)cc1`, in data set [1], the Kd was 59 µM.
Still for that read-out and setting: in the case of `Cc1ccc(-c2cc(C(=O)O)nn2-c2ccc(Cl)c(Cl)c2)cc1` it was 72 µM; in that of `O=C(O)c1cc(-c2ccccc2)n(-c2ccc(Cl)c(Cl)c2)n1`, 123 µM.
On the same count and under the same terms, then `Nc1ccc(-c2cc(C(=O)O)nn2-c2ccc(Cl)c(Cl)c2)cc1`, with 227 µM.
On to `O=C(O)c1ccc(-c2ccc(C(=S)NCc3ccc(-c4ccnn4-c4ccc(Cl)c(Cl)c4)cc3)c(Cl)c2)o1`, for which, in data set [4], the Papp amounted to 14.5 ×10⁻⁶ cm/s. This compound registered a dissociation constant Kd in data set [1] of 1.7 µM.
Regarding `O=C(O)c1cc(-c2ccc(CNS(=O)(=O)c3ccccc3)cc2)n(-c2ccc(Cl)c(Cl)c2)n1`, the Kd in data set [1] came to 70 µM.
In the case of `COc1ccc(-c2cc(C(=O)O)nn2-c2cccc(Cl)c2)cc1`, the inhibition in data set [3] amounted to 35%. In data set [1], the Kd is > 500 µM.
Consider `O=C(O)c1cc(-c2ccccc2)n(-c2ccccc2)n1`, for which the Kd in data set [2] was determined as 1150 µM.
The compound `COc1ccc(-c2cc(C(=O)O)nn2-c2cccc(Br)c2)cc1` gave a Kd in data set [1] of 140 µM.
The same measure, in the same setting: in the case of `O=C(NCc1ccc(-c2cc(C(=O)O)nn2-c2ccc(Cl)c(Cl)c2)cc1)c1ccccc1` it was 90 µM.
As for `COc1ccc(-c2cc(C(=O)O)nn2-c2ccc(Br)cc2)cc1`, the inhibition in data set [3] turned out to be 24%. For the same compound, the Kd in data set [1] is > 500 µM.
In data set [1], `Cc1cccc(-c2cc(C(=O)O)nn2-c2ccc(Cl)c(Cl)c2)c1` gave a Kd of 90 µM.
Take `O=C(O)c1cc(-c2ccc(C(=S)NCc3cccc(-c4ccc(C(=O)O)o4)c3)cc2)n(-c2ccc(Cl)c(Cl)c2)n1`: in data set [1], the Kd was 2.5 µM.
In turn, `COc1ccc(-c2cc(C(=O)O)nn2-c2ccc(C)cc2)cc1` showed an inhibition in data set [3] of 15%. The Kd in data set [1] was > 500 µM.
On to `COc1ccc(-c2cc(C(=O)O)nn2-c2ccc(Cl)cc2)cc1`, for which the inhibition in data set [3] amounted to 19%. Besides, in data set [1], the Kd is > 500 µM.

The values above are taken from ChEMBL document CHEMBL3421550, “Diphenylpyrazoles as replication protein a inhibitors” (ACS Med Chem Lett, 2015).
